Measured values from patent US11872216B2, “Pharmaceutical formulation comprising cineole and amoxicillin” (priority 2016, dated 2024).
“And” between values parts separate entries of the source, which are not always exact repeats. Identical values can stand only once.

Experiments:
[1] = tested on: amoxicillin-sensitive bacterial strain of Escherichia coli (ATCC 8739); experiment: Enzymatic test in liquid medium (growth inhibition with or without β-lactamase and cineole); format: cell-based; settings: for % inhibition of growth: AMX 6 μg/ml, cineole 0.002 μl/ml, β-lactamase 0.03 U/ml where present, 22 hours at 30° C.
Method: (§1) This study is based on an enzymatic test first placing AMX combined with cineole in contact with ß-lactamases. The antibacterial activity of this antibiotic was then checked on an AMX-sensitive strain of Escherichia coli.
(§2) An amoxicillin-sensitive bacterial strain of Escherichia coli (ATCC 8739) was supplied by the national hygiene institute (INH-Rabat).
(§3) For each test performed, precultures of this E. coli strain of 24 h at 37° C. were prepared from this bacterial strain (frozen beforehand at −20° C.). From these precultures, bacterial inocula of 3.3×10^6 CFU/ml were prepared, adjusting the optical density to 540 nm.
The ß-lactamase powder was supplied by Sigma Aldrich (France). It was dissolved according to the supplier's instructions, at 10 mg/ml in 0.1 M of Tris HCl at pH 7, containing 0.1% of gelatin. The ß-lactamase (0.03 U/ml) thus prepared was stored between 2 and 8° C.
The MIC of AMX at 100% with respect to the sensitive strain of Escherichia coli, determined via the microdilution method described previously, is of the order of 6 μg/ml.
Starting with a 24 h preculture of the sensitive strain of E. coli, bacterial inocula at 3.3×10^6 CFU/ml were prepared, adjusting the optical density to 540 nm.
Five control tubes and one test tube were prepared as described in table 6 (cf. below).
Tube no 1 corresponds to the sterility control of the medium. Tube no 2 corresponds to the positive control of viability of the bacterial strain. Tube no 3 corresponds to the control of sensitivity of the strain to AMX. Tube no 4 corresponds to the control of non-inhibition of bacterial growth with an infra-inhibitory concentration of cineole. Tube no 5 corresponds to the control of degradation of AMX in the presence of ß-lactamase. Tube no 6 corresponds to the test of the effect of cineole on amoxicillin inhibition by the β-lactamases.
The OD was measured at time t=0, and after 22 hours of incubation at 30° C. The percentage of inhibition was then calculated according to the formula described previously:
With ODT0=OD of the test tube at time t=0, ODT22=OD of the test tube after 22 h of incubation, ODC0=OD of the positive control tube at time t=0, ODC22=OD of the positive control tube after 22 h of incubation.

[2] = tested on: amoxicillin-sensitive bacterial strain of Escherichia coli (ATCC 8739); experiment: Enzymatic test in agar medium (inhibition halos of disks with or without β-lactamase and cineole); format: cell-based
Method: as §1, §2, §3
Disks charged with antibiotics (diameter Ø=6 mm) were used for the enzymatic test in agar medium (AMX: amoxicillin and AMC: amoxicillin+clavulanic acid). They were supplied by the national hygiene institute (INH-Rabat). The AMX used for the enzymatic test in liquid medium was supplied by Sigma Aldrich (France).
The cineole was supplied by Sigma Aldrich (France). […]
Starting with a 24 h sensitive preculture of E. coli, eighteen Petri dishes of the agar MH medium were inoculated by surface plating. […] 10 μl of β-lactamase at 0.03 U/ml and 10 μl of cineole at 0.002 μl/ml were added to the surface of each of these three disks. • After incubation of the eight Petri dishes for 18 h at 37° C., the diameters of the inhibition halos were measured.

MIC ([1]; ATCC8739, sensitive strain of Escherichia coli, microdilution, read-out: MIC of AMX at 100%) | Compound | % inhibition of growth [1] | Diameters of the halos ([2]; disks AMX 20 μg, AMC 30 μg, β-lactamase 0.03 U/ml, cineole 0.002 μl/ml where added, 18 h at 37° C., 6 mm is the diameter of the disk, listed as AMX) | % inhibition of growth ([1]; listed as Cineole) | infra-inhibitory concentration (highest concentration without any inhibition) ([2]; microdilution method)
~6 µg/mL | CC1(C)S[C@@H]2[C@H](NC(=O)[C@H](N)c3ccc(O)cc3)C(=O)N2[C@H]1C(=O)O [amoxicillin, Amoxicillin] | 100% ± 0.0 | 15 mm and 15 ± 1.0 mm | – | –
– | CC12CCC(CC1)C(C)(C)O2 [cineole, 1,8-cineole] | no growth inhibition | – | 0% ± 0.0 | ~0.002 μl/ml
